≈ marks a conversion by molar mass, not a printed value. Like-named read-outs stand apart in the source and are kept apart here.
Tests used:
[1] = tested on: lipoprotein lipase (LPL) gene; assay: LPL mRNA elevating action (RT-PCR quantification of LPL mRNA in C2Cl2 cells); assay type: cell-based, mouse; conditions: Mus musculus, 24 h, compound 10 μM, ratio relative to the amount of LPL mRNA in cells with DMSO only, read-out: Rate of increase in LPL mRNA
How it was run: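 Read-out is LPL mRNA relative to vehicle (DMSO = 1), measured by reverse transcription and 20-cycle real-time PCR. Cells were the mouse striated-muscle line C2Cl2, treated 24 h with 10 μM compound in DMEM containing 10% FBS.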

[2] = Solubility in gastric juice or intestinal juice model fluid (precipitation method using DMSO); assay type: physicochemical; conditions: room temperature
How it was run: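 Dissolved amount (μg/mL) quantified by UV of filtrate versus pre-made calibration curves. Precipitation approach: DMSO solutions spiked into pH 1.2 (JP 1st fluid) or pH 6.8 (JP 2nd fluid) medium, shaken at room temperature for 24 h before insolubles were filtered off.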

[3] = pH 1.2, simulated gastric fluid, kinetic from dmso stock, 1st fluid for Disintegration Test of Japanese Pharmacopoeia (pH: 1.2), read-out: Solubility (μg/mL) 1st fluid
[4] = pH 6.8, kinetic from dmso stock, 2nd fluid for Disintegration Test of Japanese Pharmacopoeia (pH: 6.8), read-out: Solubility (μg/mL) 2nd fluid

Row | Structure (SMILES) | solubility at 24 h [2, 3] | solubility at 24 h [2, 4] | melting point | Solubility (μg/mL) 1st fluid ([2]; 1st fluid for Disintegration Test of Japanese Pharmacopoeia (pH: 1.2), 24 hours) | fold induction at 10 µM [1]
1 | COc1cc(OCc2ncc(Br)cc2F)ccc1-c1[nH]c(-c2ccc(F)nc2)nc1Cl [Example 175] | 10 µg/mL (≈ 19.7 µM) | 2.5 µg/mL (≈ 4.92 µM) | 122 to 124 °C |  | 3.94
2 | COc1cc(OCc2ccc(C(F)(F)F)cn2)ccc1-c1[nH]c(C2CCCC(F)(F)C2)nc1Br (centres unmarked) [Example 183] | 99 µg/mL (≈ 181 µM) | 1.1 µg/mL (≈ 2.01 µM) | 170 to 171 °C |  | 4.26
3 | COc1cc(OCc2ccc(C(F)(F)F)cn2)ccc1-c1[nH]c(C2CC(F)(F)C2)nc1Cl [Example 188] | 86.4 µg/mL (≈ 182 µM) | 1.9 µg/mL (≈ 4.01 µM) | 191 to 193 °C |  | 2.95
4 | COc1cc(-c2[nH]c(C3C4CC5CC(C4)CC3C5)nc2Cl)ccc1OCc1ccc(C(F)(F)F)cn1 (centres unmarked) [Example 201] | 90 µg/mL (≈ 174 µM) | 2.6 µg/mL (≈ 5.02 µM) | 238 to 240 °C (dec.) |  | 2.45
5 | COc1cc(OCc2ccc(C(F)(F)F)nc2)c(C)cc1-c1[nH]c(-c2ccc(F)nc2)nc1Cl [Example 202] | 8.8 µg/mL (≈ 17.9 µM) | < 1.8 µg/mL | 213 to 215 °C (dec.) |  | 3.15
6 | COc1cc(OCc2ncc(C)cc2C)ccc1-c1nc(-c2ccc(F)nc2)[nH]c1Cl [Example 206] | > 88 µg/mL | 7 µg/mL (≈ 15.9 µM) | 109 to 124 °C |  | 2.75
7 | COc1cc(OC(C)c2ccc(C(F)(F)F)cn2)ccc1-c1nc(-c2ccc(F)nc2)[nH]c1Cl (centres unmarked) [Example 207] |  | 0.4 µg/mL (≈ 0.812 µM) | 166 to 169 °C | 83.4 µg/mL (≈ 169 µM) | 2.5
8 | COc1cc(OCc2ccc(C(F)(F)F)cn2)ccc1-c1[nH]c(-c2ccc(Cl)nc2)nc1I [Example 208] | 24.9 µg/mL (≈ 42.4 µM) | < 0.4 µg/mL | 204 to 208 °C (dec.) |  | 4.72
9 | COc1cc(OCc2coc(C)n2)ccc1-c1nc(-c2ccc(Cl)nc2)[nH]c1Cl [Example 211] | 84.7 µg/mL (≈ 196 µM) | 2.2 µg/mL (≈ 5.1 µM) | 136 to 155 °C |  | 2.55
10 | COc1cc(-c2nc(-c3ccc(F)nc3)[nH]c2Cl)ccc1OCc1ncccc1F [Example 212] | 76.9 µg/mL (≈ 179 µM) | 0.5 µg/mL (≈ 1.17 µM) | 161 to 163 °C |  | 2.22
11 | COc1cc(OCn2cccn2)ccc1-c1nc(-c2ccc(Cl)nc2)[nH]c1Cl [Example 213] | 79.7 µg/mL (≈ 191 µM) | 2.1 µg/mL (≈ 5.04 µM) | 166 to 169 °C |  | 2.04
12 | COc1cc(OCc2ncccc2C(F)(F)F)ccc1-c1nc(-c2ccc(F)nc2)[nH]c1Cl [Example 214] | > 96 µg/mL | 7.1 µg/mL (≈ 14.8 µM) | 143 to 146 °C |  | 3.66
13 | COc1cc(OCc2cnc(C)cn2)ccc1-c1nc(-c2ccc(F)nc2)[nH]c1Cl [Example 216] | 84.3 µg/mL (≈ 198 µM) | 1.8 µg/mL (≈ 4.23 µM) | 208 to 210 °C (dec.) |  | 2.62
14 | COCCOc1cc(OCc2ccc(C(F)(F)F)cn2)ccc1-c1nc(-c2ccc(Cl)nc2)[nH]c1Cl [Example 218] | 0.4 µg/mL (≈ 0.742 µM) | < 9.6 µg/mL | 170 to 172 °C |  | 1.21
15 | COc1cc(-c2nc(-c3ccc(Cl)nc3)[nH]c2Cl)ccc1OCc1cccc(F)n1 [Example 220] | < 0.3 µg/mL | < 7.9 µg/mL | 198 to 201 °C |  | 2.69
16 | COc1cc(OCc2ncccc2C(F)(F)F)ccc1-c1nc(-c2ccc(Cl)nc2)[nH]c1Cl [Example 221] | 66.5 µg/mL (≈ 134 µM) | < 8.8 µg/mL | 182 to 184 °C |  | 3.47
17 | COc1cc(OCc2ccc(C(F)(F)F)cn2)ccc1-c1nc(-c2ccc(Cl)nc2)[nH]c1Br [Example 225] | 5.5 µg/mL (≈ 10.2 µM) | 0.9 µg/mL (≈ 1.67 µM) | 186 to 188 °C |  | 2.8
18 | COc1cc(OCc2cnccn2)ccc1-c1nc(-c2ccc(Cl)nc2)[nH]c1Cl [Example 230] | 7.2 µg/mL (≈ 16.8 µM) | < 0.3 µg/mL | 172 to 174 °C |  | 1.58

The next lines start with results.

Row | solubility at 24 h [2, 3] | solubility at 24 h [2, 4] | melting point | Solubility (μg/mL) 1st fluid ([2]; 1st fluid for Disintegration Test of Japanese Pharmacopoeia (pH: 1.2), 24 hours) | Structure (SMILES) | fold induction at 10 µM [1]
19 | 105 µg/mL (≈ 191 µM) | 1.3 µg/mL (≈ 2.38 µM) | 158 to 160 °C |  | COc1cc(-c2[nH]c(C3CCCC(F)(F)C3)nc2Br)ccc1OCc1ccc(C(F)(F)F)cn1 (centres unmarked) [Example 170] | 3.36
20 | 98.5 µg/mL (≈ 190 µM) | 1.7 µg/mL (≈ 3.28 µM) | 168 to 170 °C |  | COc1cc(-c2[nH]c(C3CC(F)(F)C3)nc2Br)ccc1OCc1ccc(C(F)(F)F)nc1 [Example 178] | 3.58
21 | 25.8 µg/mL (≈ 54.5 µM) | 2.3 µg/mL (≈ 4.85 µM) | 170 to 174 °C |  | COc1cc(-c2[nH]c(C3CC(F)(F)C3)nc2Cl)ccc1OCc1ccc(C(F)(F)F)nc1 [Example 179] | 2.66
22 | 93.4 µg/mL (≈ 197 µM) | < 0.3 µg/mL | 199 to 201 °C |  | COc1cc(OCc2ccc(C(F)(F)F)nc2)ccc1-c1[nH]c(C2CC(F)(F)C2)nc1Cl [Example 181] | 4.53
23 | 95.5 µg/mL (≈ 190 µM) | 1.9 µg/mL (≈ 3.79 µM) | 162 to 164 °C |  | COc1cc(OCc2ccc(C(F)(F)F)cn2)ccc1-c1[nH]c(C2CCCC(F)(F)C2)nc1Cl (centres unmarked) [Example 182] | 3.41
24 | 87.4 µg/mL (≈ 190 µM) | 23.1 µg/mL (≈ 50.3 µM) | 161 to 162 °C |  | COc1cc(OCc2ncccc2C#N)ccc1-c1[nH]c(C2CCC(F)(F)CC2)nc1Cl [Example 185] | 2.41
25 | 89 µg/mL (≈ 182 µM) | 11.6 µg/mL (≈ 23.8 µM) | 159 to 161 °C |  | COc1cc(-c2[nH]c(C3CCC(F)(F)C3)nc2Cl)ccc1OCc1ccc(C(F)(F)F)cn1 (centres unmarked) [Example 189] | 3.51
26 | 92.5 µg/mL (≈ 178 µM) | 2 µg/mL (≈ 3.86 µM) | 151 to 157 °C |  | COc1cc(-c2[nH]c(C3CC(F)(F)C3)nc2Br)ccc1OCc1ccc(C(F)(F)F)cn1 [Example 190] | 3.58
27 | 25.9 µg/mL (≈ 54.7 µM) | 1.7 µg/mL (≈ 3.59 µM) | 201 to 203 °C (dec.) |  | COc1cc(-c2[nH]c(C3CC(F)(F)C3)nc2Cl)ccc1OCc1ccc(C(F)(F)F)cn1 [Example 191] | 4.06
28 | 86.4 µg/mL (≈ 197 µM) | 0.8 µg/mL (≈ 1.83 µM) | 158 to 170 °C |  | COc1cc(-c2[nH]c(C3CCC3)nc2Cl)ccc1OCc1ccc(C(F)(F)F)cn1 [Example 193] | 4.32
29 | > 90 µg/mL | 0.5 µg/mL (≈ 1.11 µM) | 182 to 184 °C (dec.) |  | COc1cc(-c2[nH]c(C3CCCC3)nc2Cl)ccc1OCc1ccc(C(F)(F)F)cn1 [Example 194] | 3.92
30 | > 100 µg/mL | 0.6 µg/mL (≈ 1.2 µM) | 162 to 164 °C |  | COc1cc(OCc2ncccc2C(F)(F)F)ccc1-c1[nH]c(C2CCC(F)(F)CC2)nc1Cl [Example 195] | 3.34
31 | > 109 µg/mL | 17.4 µg/mL (≈ 31.8 µM) | 158 to 165 °C |  | COc1cc(-c2[nH]c(C3CCC(F)(F)CC3)nc2Br)ccc1OCc1ccc(C(F)(F)F)cn1 [Example 198] | 6.36
32 | > 115 µg/mL | < 10.2 µg/mL | 162 to 165 °C |  | COc1c(OCc2ccc(C(F)(F)F)nc2)ccc(-c2[nH]c(C3CCC(F)(F)CC3)nc2Br)c1OC [Example 199] | 5.05
33 | 98.4 µg/mL (≈ 185 µM) | 2.4 µg/mL (≈ 4.51 µM) | 148 to 150 °C |  | COc1c(OCc2ccc(C(F)(F)F)nc2)ccc(-c2[nH]c(C3CCC(F)(F)CC3)nc2Cl)c1OC [Example 200] | 4.73
34 | 63.8 µg/mL (≈ 127 µM) | < 1.8 µg/mL | 164 to 167 °C |  | COc1cc(-c2[nH]c(C3CCC(F)(F)CC3)nc2Cl)ccc1OCc1ccc(C(F)(F)F)nc1 [Example 203] | 5.47
35 | > 100 µg/mL | < 8.9 µg/mL | 122 to 125 °C |  | COc1cc(OCc2ccc(C(F)(F)F)nc2)ccc1-c1[nH]c(C2CCC(F)(F)CC2)nc1Cl [Example 204] | 5.07
36 | > 106 µg/mL | < 9.5 µg/mL | 175 to 177 °C |  | COc1c(OCc2ccc(C(F)(F)F)cn2)ccc(-c2[nH]c(C3CCC(F)(F)CC3)nc2Cl)c1OC [Example 205] | 5.41
37 | 99.4 µg/mL (≈ 198 µM) | < 0.4 µg/mL | 175 to 177 °C |  | COc1cc(-c2[nH]c(C3CCC(F)(F)CC3)nc2Cl)ccc1OCc1ccc(C(F)(F)F)cn1 [Example 209] | 5.34
38 | 95.6 µg/mL (≈ 190 µM) | 1.5 µg/mL (≈ 2.99 µM) | 147 to 149 °C |  | COc1cc(OCc2ccc(C(F)(F)F)cn2)ccc1-c1[nH]c(C2CCC(F)(F)CC2)nc1Cl [Example 210] | 5.69
